From ChEMBL document CHEMBL3751755, “Developing steroidal aromatase inhibitors-an effective armament to win the battle against breast cancer” (Eur J Med Chem, 2015) come the findings set out here.

Test [1] concerns the target T1, Aromatase (Rattus norvegicus, UniProt P22443).
T1 sequence (P22443 whole entry): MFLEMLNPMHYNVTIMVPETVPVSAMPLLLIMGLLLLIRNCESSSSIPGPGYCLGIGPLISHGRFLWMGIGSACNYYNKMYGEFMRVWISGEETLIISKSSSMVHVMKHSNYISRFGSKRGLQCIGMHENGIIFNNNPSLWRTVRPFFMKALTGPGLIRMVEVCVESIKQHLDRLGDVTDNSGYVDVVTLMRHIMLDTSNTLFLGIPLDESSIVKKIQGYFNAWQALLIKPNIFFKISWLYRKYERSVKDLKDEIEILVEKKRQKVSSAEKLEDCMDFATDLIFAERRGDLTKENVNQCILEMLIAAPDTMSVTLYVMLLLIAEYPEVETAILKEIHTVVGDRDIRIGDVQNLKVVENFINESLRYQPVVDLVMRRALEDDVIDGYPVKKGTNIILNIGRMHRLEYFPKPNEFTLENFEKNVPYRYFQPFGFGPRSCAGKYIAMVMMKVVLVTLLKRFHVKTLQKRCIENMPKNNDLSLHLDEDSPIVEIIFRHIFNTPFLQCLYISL
Kind of test: Inhibition of aromatase in denucleated ovarian fraction extracted from PMSG pretreated Wistar rat using testosterone as substrate at 10 uM by radioimmuno assay.

Test [2] addresses T2, Aromatase (Homo sapiens, UniProt P11511).
T2 sequence (P11511 whole entry): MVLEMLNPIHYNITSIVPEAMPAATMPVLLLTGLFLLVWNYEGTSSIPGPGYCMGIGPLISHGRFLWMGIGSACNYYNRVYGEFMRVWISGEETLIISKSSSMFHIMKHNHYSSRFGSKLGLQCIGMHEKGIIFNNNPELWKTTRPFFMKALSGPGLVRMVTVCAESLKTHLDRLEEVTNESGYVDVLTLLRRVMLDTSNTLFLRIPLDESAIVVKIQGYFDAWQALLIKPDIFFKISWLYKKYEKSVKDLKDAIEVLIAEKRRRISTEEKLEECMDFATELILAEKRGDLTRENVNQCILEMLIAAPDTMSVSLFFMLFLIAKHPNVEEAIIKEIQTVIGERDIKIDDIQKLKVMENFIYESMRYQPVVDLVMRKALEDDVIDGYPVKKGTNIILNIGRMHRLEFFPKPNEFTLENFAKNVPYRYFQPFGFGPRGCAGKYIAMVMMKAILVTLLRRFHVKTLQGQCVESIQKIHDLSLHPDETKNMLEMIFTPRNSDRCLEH
Briefly: Inhibition of human aromatase extracted from placental microsomes using [1beta-3H]androstenedione as substrate after 20 mins by scintillation counting analysis.

Test [3] has as its target T2, Aromatase. Briefly: Inhibition of human aromatase extracted from placental microsomes assessed as 3H2O formation from [1b,2b-3H] testosterone preincubated for 5 mins followed by protein addition measured at 7 to 21 mins by liquid scintillation counting analysis.
Test [4] can be described thus: Cytotoxicity against human PC3 cells after 48 hrs by MTT assay. Format: functional, cell-based. The conditions noted are these: PC-3, 48 h.
For test [5], the system named is HeLa. Kind of test: Cytotoxicity against human HeLa cells after 48 hrs by MTT assay. The class given is functional, cell-based.
Test [6] concerns the target T2, Aromatase. Briefly: Competitive inhibition of human placental aromatase in presence of testosterone.

Turning to `C[C@]12CC[C@@H]3c4ccc(O)cc4CC[C@H]3[C@@H]1CC(=O)OC2`, in test [1], the inhibition at 10 µM is 1.5%. As to `C[C@]12C=CC(=O)C=C1CC[C@@H]1[C@@H]2CC[C@]2(C)C(=O)/C(=C/c3ccc4c(c3)OCO4)C[C@@H]12`, the IC50 in test [2] turned out to be 6.4 µM. In the case of `COc1cc(/C=C2\C[C@H]3[C@@H]4CCC5=CC(=O)CC[C@]5(C)[C@H]4CC[C@]3(C)C2=O)ccc1OCCCn1ccnc1`, the IC50 in test [3] turned out to be 4.4 µM. For the compound `C=C1C[C@@H]2[C@H]([C@H](O)C[C@]3(C)C(=O)CC[C@@H]23)[C@@]2(C)C=CC(=O)C=C12`, the IC50 in test [4] came to 24.9 µM; in test [5] it was 16.8 µM.

For `C[C@]12CCC(=O)C3=C1C(=Nc1ccccc1S3)C[C@@H]1[C@@H]2CC[C@]2(C)C(=O)CC[C@@H]12`, the IC50 in test [6] was 42.3 µM.
